This passage reports IC50 results from patent US20250051319A1 (AUGUSTINE THERAPEUTICS, priority 2021, published 2025).

Assay [1] deals with T1, human full-length recombinant HDAC1 (Homo sapiens (Human), UniProt Q13547). The assay is described as follows: HDAC1 enzymatic activity assay (alternative protocol, Ac-Gly-Ala-Lys(Ac)-AMC). The assay is classed as biochemical. As to conditions: 4 nM enzyme, read-out: HDAC1 biochem. In short, it runs like this:
(§1)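 Sf9-expressed enzymes (4 nM HDAC1, 5 nM HDAC6) preincubated 10 min at RT with compound, then 60 min with Ac-Gly-Ala-Lys(Ac)-AMC ([…] HDAC1, 40 µM HDAC6); pH 8.0 Tris buffers, HDAC6 buffer with EDTA and DTT. Trypsin/SAHA developer stop, fluorescence 360/450 nm after 15 min; normalized to DMSO (100%) and 10 μM SAHA (0%).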

Assay [2] concerns the target T2, human full-length recombinant HDAC6 (Homo sapiens (Human), UniProt Q9UBN7). The assay is described as follows: HDAC6 enzymatic activity assay (alternative protocol, Ac-Gly-Ala-Lys(Ac)-AMC). The assay is classed as biochemical. As to conditions: 5 nM enzyme, read-out: HDAC6 biochem. In short, it runs like this:
as §1

Assay [3] concerns the target T1, human full-length recombinant HDAC1. The assay is described as follows: HDAC1 enzymatic activity assay (Reaction Biology Corporation, RHKKAc fluorogenic peptide). The assay is classed as biochemical. The following applies: Reaction Biology Corporation protocol, RHKKAc fluorogenic peptide 10 μM; read-out: HDAC1 biochem. As for the experimental part:
(§2) Dose response testing of HDAC6 and HDAC 1 were run at Reaction Biology Corporation (RBC). Inhibition of HDAC enzymes was performed using N-terminal GST tagged human full-length recombinant HDAC6 (H88-30G, SignalChem) and C-terminal FLAG His tag human full-length recombinant HDAC1 produced in insect cells (KDA-21-365, RBC). Enzyme reactions were run in 50 mM Tris-HCl, pH8.0, 137 mM NaCl, 2.7 mM KCl, and 1 mM MgCl2 with 1 mg/ml BSA, 1% DMSO freshly added. 2× enzyme was delivered in the wells of the reaction plate except for the “no enzyme” control wells. In the latter, buffer was added. Compounds in 100% DMSO were delved into the enzyme mixture by acoustic technology (Echo550). Plates are spun down and compounds were incubation with the enzyme for 10 min at room temperature. 2× Fluorogenic peptide from p53 residues 379-382 (RHKKAc, 10 μM final concentration) was added in all wells to initiate the reaction, followed by 1 h incubation at 30° C. Developer containing Trichostatin A was added to stop the reaction and generate fluorescent color. A kinetic measurement was carried out for 20 min with 5 min interval on the Envision plate reader (Perkin Elmer, Ex/Em=360/460). End point reading i.e., plateau of the development reaction was used for analysis. Data was reported by RBC as percentage enzyme activity. Percentage inhibition was calculated by subtracting percentage enzyme activity from 100. IC50 values were calculated using GraphPad Prism 9 based on the log(inhibitor) vs. response—Variable slope (four parameters) equation.

Assay [4] addresses catalytic domain 2 (CD2) of HDAC6 (Homo sapiens (Human), UniProt Q9UBN7). The assay is described as follows: Cellular target engagement assay - NanoBRET. The assay is classed as cell-based. As to conditions: NanoLuc-HDAC6(CD2) in HEK293T cells, 2 hours, read-out: IC50 (HDAC6(CD2) interaction). On the technique in general: Bioluminescence resonance energy transfer reports proximity on the nanometre scale.

The target of assay [5] is T2, human full-length recombinant HDAC6. Nature of the assay: HDAC6 enzymatic activity assay (Reaction Biology Corporation, RHKKAc fluorogenic peptide). The assay is classed as biochemical. The following applies: Reaction Biology Corporation protocol, RHKKAc fluorogenic peptide 10 μM; read-out: HDAC6 biochem. How it is done: as §2

T1 sequence (Q13547 whole entry): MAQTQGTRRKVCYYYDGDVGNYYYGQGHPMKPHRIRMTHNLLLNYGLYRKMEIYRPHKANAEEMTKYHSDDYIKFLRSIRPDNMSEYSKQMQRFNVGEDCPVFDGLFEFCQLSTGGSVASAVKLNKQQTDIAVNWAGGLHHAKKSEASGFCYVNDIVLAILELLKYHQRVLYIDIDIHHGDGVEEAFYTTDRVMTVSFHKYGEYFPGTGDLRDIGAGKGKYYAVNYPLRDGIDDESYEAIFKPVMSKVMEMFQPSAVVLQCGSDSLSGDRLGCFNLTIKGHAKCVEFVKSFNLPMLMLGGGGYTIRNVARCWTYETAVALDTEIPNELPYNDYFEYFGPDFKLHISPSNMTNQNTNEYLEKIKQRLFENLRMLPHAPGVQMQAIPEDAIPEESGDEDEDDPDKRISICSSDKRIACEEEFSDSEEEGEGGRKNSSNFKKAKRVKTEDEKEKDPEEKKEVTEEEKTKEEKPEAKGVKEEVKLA
T2 sequence (Q9UBN7 whole entry): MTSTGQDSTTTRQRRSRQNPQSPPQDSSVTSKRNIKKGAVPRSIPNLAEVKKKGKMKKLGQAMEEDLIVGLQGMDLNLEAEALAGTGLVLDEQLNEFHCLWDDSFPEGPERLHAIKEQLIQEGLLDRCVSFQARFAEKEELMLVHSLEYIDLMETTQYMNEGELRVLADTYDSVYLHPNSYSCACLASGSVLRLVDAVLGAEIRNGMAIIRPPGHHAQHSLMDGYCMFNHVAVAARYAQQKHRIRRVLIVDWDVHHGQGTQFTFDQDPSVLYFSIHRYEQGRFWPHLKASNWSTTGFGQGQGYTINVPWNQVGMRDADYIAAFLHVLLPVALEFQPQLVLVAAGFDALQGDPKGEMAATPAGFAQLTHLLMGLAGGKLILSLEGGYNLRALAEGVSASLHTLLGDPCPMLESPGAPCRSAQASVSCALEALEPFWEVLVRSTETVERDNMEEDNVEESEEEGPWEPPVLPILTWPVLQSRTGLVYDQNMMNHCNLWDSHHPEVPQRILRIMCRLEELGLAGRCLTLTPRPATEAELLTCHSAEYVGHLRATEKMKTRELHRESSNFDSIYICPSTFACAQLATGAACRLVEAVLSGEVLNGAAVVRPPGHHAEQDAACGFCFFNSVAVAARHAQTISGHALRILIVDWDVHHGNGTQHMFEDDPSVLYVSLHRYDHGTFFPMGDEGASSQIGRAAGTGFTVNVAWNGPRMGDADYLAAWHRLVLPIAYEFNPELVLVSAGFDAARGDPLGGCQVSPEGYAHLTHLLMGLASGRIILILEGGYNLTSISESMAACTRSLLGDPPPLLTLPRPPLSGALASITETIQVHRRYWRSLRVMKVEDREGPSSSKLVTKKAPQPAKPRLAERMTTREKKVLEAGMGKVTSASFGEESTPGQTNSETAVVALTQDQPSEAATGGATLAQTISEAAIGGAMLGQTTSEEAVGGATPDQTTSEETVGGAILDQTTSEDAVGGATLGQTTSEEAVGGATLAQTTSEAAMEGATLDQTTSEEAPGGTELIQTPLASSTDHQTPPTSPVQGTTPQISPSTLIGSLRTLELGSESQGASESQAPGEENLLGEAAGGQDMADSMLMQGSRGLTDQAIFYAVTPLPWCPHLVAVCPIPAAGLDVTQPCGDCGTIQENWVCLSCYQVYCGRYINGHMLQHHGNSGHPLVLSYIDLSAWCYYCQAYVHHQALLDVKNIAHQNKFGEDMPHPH
Chain of catalytic domain 2 (CD2) of HDAC6 (Q9UBN7 482-800): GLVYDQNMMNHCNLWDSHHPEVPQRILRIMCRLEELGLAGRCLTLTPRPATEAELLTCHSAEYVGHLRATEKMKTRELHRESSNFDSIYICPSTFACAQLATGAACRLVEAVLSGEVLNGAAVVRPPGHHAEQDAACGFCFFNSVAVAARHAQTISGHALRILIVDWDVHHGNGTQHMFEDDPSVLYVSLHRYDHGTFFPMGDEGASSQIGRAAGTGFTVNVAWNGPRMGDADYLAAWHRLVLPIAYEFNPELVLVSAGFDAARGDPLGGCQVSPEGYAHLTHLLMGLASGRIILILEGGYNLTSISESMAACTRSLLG

On to `Cn1ncc2c(SCC(=O)c3ccc(CNC(=O)C4CC4)s3)ncnc21` [Example 31, N-((5-(2-((1-methyl-1H-pyrazolo[3,4-d]pyrimidin-4-yl)thio)acetyl)thiophen-2-yl)methyl)cyclopropanecarboxamide], for which the IC50 is greater than 10 µM in assay [1]; no more than 100 nM in assay [2]; greater than 10 µM in assay [3]; 1 to 10 µM in assay [4]; no more than 100 nM in assay [5].
